Measured values from patent US9976141B2, “Compositions and methods for inhibiting gene expression of Hif2alpha” (Arrowhead Madison Inc., priority 2015, dated 2018).

System: human (tumor) Hif2α (EPAS1) mRNA
Test: Hif2α knockdown in orthotopic RCC tumor bearing mice, single injection of RNAi trigger-delivery polymer conjugate, RT-qPCR (Table 7)
Assay type: in vivo
Conditions: single tail vein injection, relative to isotonic glucose
Procedure: A pCR3.1 expression vector expressing the reporter gene secreted alkaline phosphatase (SEAP) under the CMV promoter was prepared by directional cloning of the SEAP coding sequence PCR amplified from Clontech's pSEAP2-basic vector. Convenient restriction sites were added onto primers used to amplify the SEAP coding sequence for cloning into the pCR3.1 vector (Invitrogen). The resultant construct pCR3-SEAP was used to create a SEAP-expressing A498 ccRCC cell line. Briefly, pCR3-SEAP plasmid was transfected into A498 ccRCC cells by electroporation following manufacturer's recommendation. Stable transfectants were selected by G418 resistance. Selected A498-SEAP clones were evaluated for SEAP expression and integration stability.
Female athymic nude mice were anesthetized with ˜3% isoflourane and placed in the right lateral decubitus position. A small, 0.5-1 cm, longitudinally abdominal incision in the left flank was made. Using a moist cotton swab, the left kidney was lifted out of the peritoneum and gently stabilized. Just before injection, a 1.0 ml syringe was filled with the cell/Matrigel mixture and a 27 gauge needle catheter was attached to the syringe tip. The filled syringe was then attached to a syringe pump (Harvard Apparatus, model PHD2000) and primed to remove air. The tip of a 27-gauge needle catheter attached to a syringe was inserted just below the renal capsule near the caudal pole and the tip of the needle was then carefully advanced cranially along the capsule 3-4 mm. A 10 μl aliquot of 2:1 (vol:vol) cell/matrigel mixture containing about 300,000 cells was slowly injected into the kidney parenchyma using a syringe pump. The needle was left in the kidney for 15-20 seconds to ensure the injection was complete. The needle was then removed from the kidney and a cotton swab was placed over the injection site for 30 seconds to prevent leakage of the cells or bleeding. The kidney was then gently placed back into the abdomen and the abdominal wall was closed. Serum was collected every 7-14 days after implantation to monitor tumor growth using a commercial SEAP assay kit. For most studies, tumor mice were used 5-6 weeks after implantation, when tumor measurements were typically around 4-8 mm.
RGD targeted HiF2α-RNAi trigger delivery conjugates. Delivery polymers were modified using RGD-PEG-HyNic, RGD-PEG-ACit-PNP, or RDG-PEG-FCitFP-TFP and PEG-dipeptide modifying agents. The indicated amount of polymer 126 or 100A polymer was modified with 8×PEG12-ACit-PABC-PNP/0.5× aldehyde-PEG24-FCit-PABC-PNP (with RGD mimic #1-PEG-HyNic using protocol #1) and the indicated amount of the indicated Hif2α RNAi trigger. Polymer 064 was modified according to protocol 7. Kidney RCC tumor-bearing mice were generated as described and treated with a single tail vein injection of isotonic glucose (G1) or the indicated Hif2α RNAi trigger-delivery polymer conjugate. Mice were euthanized at the indicated time after injection and total RNA was prepared from kidney tumor using Trizol reagent following manufacturer's recommendation. Relative HiF2α mRNA levels were determined by RT-qPCR as described below and compared to mice treated with delivery buffer (isotonic glucose) only.
In preparation for quantitative PCR, total RNA was isolated from tissue samples homogenized in TriReagent (Molecular Research Center, Cincinnati, Ohio) following the manufacturer's protocol. Approximately 500 ng RNA was reverse-transcribed using the High Capacity cDNA Reverse Transcription Kit (Life Technologies). For human (tumor) Hif2α (EPAS1) expression, pre-manufactured TaqMan gene expression assays for human Hif2α (Catalog #4331182) and CycA (PPIA) Catalog #: 4326316E) were used in biplex reactions in triplicate using TaqMan Gene Expression Master Mix (Life Technologies) or VeriQuest Probe Master Mix (Affymetrix). […]

[1] = RNAi trigger 50 μg, polymer 064 125 μg

| Substance | Relative Expression day 4 (Hif2α mRNA in kidney tumor) [1] | also measured |
| --- | --- | --- |
| AD02735 (antisense AUUCAUGAAAUCGUUACGUUG; sense ACGUAACGAUUUCAUGAAUT; Hif2alpha RNAi agent antisense strand; modified_base 2,4,6,8,10,14,16,18 /mod_base = “2′-deoxy-2′-fluoro corresponding nucleoside”; modified_base 1,3,5,7,9,11,12,13,15,17,19,20,21 /mod_base = “2′-O-methyl corresponding nucleoside”; modified_base 2,3,20,21 /mod_base = “5′-phosphorothioate corresponding nucleotide”; Hif2alpha RNAi agent sense strand; modified_base 3,5,7,8,9,13,15,17 /mod_base = “2′-deoxy-2′-fluoro corresponding nucleoside”; modified_base 1,2,4,6,10,11,12,14,16,18,19 /mod_base = “2′-O-methyl corresponding nucleoside”; modified_base 20 /mod_base = “3′-3′-linked nucleotide”; modi) | 0.144 | – |
| AD01255 (antisense TUUCAUGAAAUCGUUACGUTT; sense UAUACGUAACGAUUUCAUGAAAT; Hif2alpha RNAi agent antisense strand; modified_base 2,4,6,8,10,12,14,16,18 /mod_base = “2′-deoxy-2′-fluoro corresponding nucleoside”; modified_base 3,5,7,9,11,13,15,17,19 /mod_base = “2′-O-methyl corresponding nucleoside”; modified_base 21 /mod_base = “5′-phosphorothioate corresponding nucleotide”; Hif2alpha RNAi agent sense strand; modified_base 2 modified base = “2′-hydroxy corresponding nucleoside”; modified_base 4,6,8,10,12,14,16,18,20,22 /mod_base = “2′-deoxy-2′-fluoro corresponding nucleoside”; modified_base 1,3,5,7,9,11,13,15,17,19,21 /mod_base = “2′-O-methyl correspondin g nucleosid) | – | Relative Expression day 4 (Hif2α mRNA in kidney tumor) (RNAi trigger 80 μg, polymer 126 400 μg): 0.28 |
| AD01658 (antisense TUUCAUGAAAUCGUUACGUTT; sense ACGUAACGAUUUCAUGAAA; Hif2alpha RNAi agent antisense strand; modified_base 2,4,6,8,10,12,14,15,18 /mod_base = “2′-deoxy-2′-fluoro corresponding nucleoside”; modified_base 3,5,7,9,11,13,16,17,19 /mod_base = “2′-O-methyl corresponding nucleoside”; modified_base 2,3,21 /mod_base = “5′-phosphorothioate corresponding nucleotide”; Hif2alpha RNAi agent sense strand; modified_base 1,3,4,7,9,11,13,15,17,19 /mod_base = “2′-deoxy-2′-fluoro corresponding nucleoside”; modified_base 2,5,6,8,10,12,14,16,18 /mod_base = “2′-O-methyl corresponding nucleoside”; modified_base 2 /mod_base = “5′-phosphorothioate corresponding nucleoti) | – | Relative Expression day 4 (Hif2α mRNA in kidney tumor) (RNAi trigger 100 μg, polymer 100A 250 μg): 0.138 |
| AD02875 (antisense AUUCAUGAAAUCGUUACGUUG; sense UAUACGUAACGAUUUCAUGAAUT; Hif2alpha RNAi agent antisense strand; modified_base 2,4,6,8,10,14,16,18 /mod_base = “2′-deoxy-2′-fluoro corresponding nucleoside”; modified_base 1,3,5,7,9,11,12,13,15,17,19,20,21 /mod_base = “2′-O-methyl corresponding nucleoside”; modified_base 2,3,20,21 /mod_base = “5′-phosphorothioate corresponding nucleotide”; Hif2alpha RNAi agent sense strand; modified_base 2 modified base = “2′-hydroxy corresponding nucleoside”; modified_base 10,11,12,16 /mod_base = “2′-deoxy-2′-fluoro corresponding nucleoside”; modified_base 1,3,4,5,6,7,8,9,13,14,15,17,18,19,20,21,22 /mod_base = “2′-O-methyl correspon) | 0.101 | – |
| AD02859 (antisense UUUCAUGAAAUCGUUACGUUG; sense ACGUAACGAUUUCAUGAAAT; Hif2alpha RNAi agent antisense strand; modified_base 2,4,6,8,14 /mod_base = “2′-deoxy-2′-fluoro corresponding nucleoside”; modified_base 1,3,5,7,9,10,11,12,13,15,16,17,18,19,20,21 /mod_base = “2′-O-methyl corresponding nucleoside”; modified_base 2,3,20,21 /mod_base = “5′-phosphorothioate corresponding nucleotide”; Hif2alpha RNAi agent sense strand; modified_base 7,8,9 /mod_base = “2′-deoxy-2′-fluoro corresponding nucleoside”; modified_base 1,2,3,4,5,6,10,11,12,13,14,15,16,17,18,19 /mod_base = “2′-O-methyl corresponding nucleoside”; modified_base 20 /mod_base = “3′-3′-linked nucleotide”; modi) | 0.214 | – |
| AD03193 (antisense AGUAAAACAAUUGUGUACUUUAA; sense AAAGUACACAAUUGUUUUACT; Hif2alpha RNAi agent antisense strand; modified_base 2,4,6,8,14 /mod_base = “2′-deoxy-2′-fluoro corresponding nucleoside”; modified_base 1,3,5,7,9,10,11,12,13,15,16,17,18,19,20,21,22,23 /mod_base = “2′-O-methyl corresponding nucleoside”; modified_base 2,3,22,23 /mod_base = “5′-phosphorothioate corresponding nucleotide”; Hif2alpha RNAi agent sense strand; modified_base 9,10,11 /mod_base = “2′-deoxy-2′-fluoro corresponding nucleoside”; modified_base 1,2,3,4,5,6,7,8,12,13,14,15,16,17,18,19,20 /mod_base = “2′-O-methyl corresponding nucleoside”; modified_base 21 /mod_base = “3′-3′-linked nucleoti) | 0.275 | – |
| AD03259 (antisense AUUCAUGAAAUCGUUACGUTG; sense ACGUAACGAUUUCAUGAATT; Hif2alpha RNAi agent antisense strand; modified_base 2,8,10,14 /mod_base = “2′-deoxy-2′-fluoro corresponding nucleoside”; modified_base 1,3,4,5,6,7,9,11,12,13,15,16,17,18,19 /mod_base = “2′-O-methyl corresponding nucleoside”; modified_base 20,21 /mod_base = “2′-MOE nucleotide”; modified_base 2,3,20,21 /mod_base = “5′-phosphorothioate corresponding nucleotide”; Hif2alpha RNAi agent sense strand; modified_base 7,8,9 /mod_base = “2′-deoxy-2′-fluoro corresponding nucleoside”; modified_base 1,2,3,4,5,6,10,11,12,13,14,15,16,17 /mod_base = “2′-O-methyl corresponding nucleoside”; modified_base 20 /m) | 0.179 | – |
